Test results published in patent publication US6221914A, “Sulfonamide bridging compounds that inhibit tryptase activity” (Array Biopharma Inc., priority 1998, dated 2001).

Assays:
Format in all cases: biochemical
Human lung tryptase = test: Ki determination, human lung tryptase (Tosyl-Gly-Pro-Arg-pNA substrate); conditions: 50 mM Tris-HCl pH 8.0, 37° C., 1 nM tryptase, 320 μM GPR-pNA; read-out: Experimentally Determined Ki, Tryptase
Method: (§1) Protease inhibition was assayed according to published procedures with minor modifications using various proteases and specific chromogenic peptide p-nitroanilide substrates. Assays were performed in Costar ultra-low cluster 96-well microtiter plate (Costar Corning Corp., Cambridge Mass.). Each protease was incubated with various concentrations of the test compound for 15 min. at 37° C. or as otherwise indicated, in specific assay buffer, and the residual activity was then measured by addition of the substrate. p-Nitroaniline produced by the proteolysis was determined by measuring the change in absorbance at 405 nm on a SpectraMAX 340 plate reader (Molecular devices, Sunnyvale, Calif.).
(§2) 1. The inhibition constant, Ki is calculated from individual data points using the equation for a tight-binding inhibitor (See Beith, "Proteinase Inhibitors-Proceedings of 2nd Int. Res. Conference", Fritz, et al. eds, New York, p.4463-4469 (1974)):
(§3) vi /vo [((Ki '+[I]+[E]o)^2 -4 [I]o
(§4) [E]o)^1/2 (Ki '+[I]o -[E]o)]/2[E]o
(§5) where Ki ' is apparent inhibition constant; vi and vo are the inhibited and uninhibited rates, respectively; [I]o and [E]o are the total concentrations of inhibitor and enzyme, respectively.
(§6) [note: [E]o is determined by active site titration of enzyme]
(§7) The Ki values are obtained by correcting Ki ' values for the effect of substrate concentration according to: [formula]
(§8) 2. Other inhibition data (Ki >>[E]o), the Ki is calculated from using the equations for a competitive inhibitor: [formula]
Human lung tryptase purchased from Cortex Biochem (San Leandro, Calif.) was purified further on a Superdex 200 gel-filtration column. The active-site concentration of the enzyme was determined by spectrophotometric titration with 4-nitrophenyl 4'-guanidinobenzoate according to Schwartz, et al., J. Immunol., 114, 2304-2311 (1990). Tryptase activity was measured according to the procedures of Schwartz, et al., J. Biol. Chem., 261, 7372-7379 (1986) (See also, Schwartz, L. B., Methods In Enzymology, 244, 88 (1994)) with minor modifications, using Tosyl-Gly-Pro-Arg-p-nitroanilide ("GPR-pNA", Sigma Chemical Co., St. Louis, Mo., T-1637) as a chromogenic substrate. The reaction was performed in 50 mM Tris-HCl, pH 8.0, containing 150 mM NaCl and 0.02% Triton X-100 at 37° C. in Costar ultra-low cluster 96-well microtiter plates (Costar Corning Corp., Cambridge, Mass.). The amount of pNA produced by tryptase was determined by measuring the change in absorbance at 405 nm on a SpectraMAX 340 plate reader (Molecular devices, Sunnyvale, Calif.). The Km for the substrate was determined by Lineweaver-Burk analysis from initial velocities of substrate hydrolysis. The inhibition assay was carried out in a total volume of 200 μL. Tryptase (30 μL- final concentration 1 nM) was incubated with various concentrations of sample compound (50 μL) to be tested in the above assay buffer for 5 min. The reaction was started by the addition of substrate GPR-pNA (40 μL-final concentration 320 μM), and the residual activity was measured after 15 min. of incubation. The inhibition constant, Ki, was determined by fitting the inhibition data to a two-site competitive binding equation using data analysis program GraphPad PRISM (GraphPad Software, Inc., San Diego, Calif.).
(§9) The inhibition constant (Ki) of the test compounds against each proteolytic enzyme was determined according to Zitnik et al., Biochem. Biophys. Res. Commun. 232, 687-697 (1997)).

[1] = biological target: T1, Bovine pancreatic Trypsin (Bos taurus, UniProt P00760); test: Ki determination, bovine pancreatic trypsin (N-a-Benzoyl-L-Arg-pNA); conditions: 50 mM Tris-HCl, pH 8.2, 20 mM CaCl2; read-out: Experimentally Determined Ki, Trypsin
T1 construct: from tissue; host or cells: bovine pancreas
T1 sequence (P00760 24-246): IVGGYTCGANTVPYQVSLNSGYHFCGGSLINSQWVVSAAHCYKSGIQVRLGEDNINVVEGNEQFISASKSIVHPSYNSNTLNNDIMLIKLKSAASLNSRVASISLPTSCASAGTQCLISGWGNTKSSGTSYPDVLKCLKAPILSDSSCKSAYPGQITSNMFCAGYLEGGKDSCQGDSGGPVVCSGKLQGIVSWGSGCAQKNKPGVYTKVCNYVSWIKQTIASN
Method: as §1, §2, §3, §4, §5, §6, §7, §8
Bovine pancreatic Trypsin (TPCK-treated) activity was determined by using N-a-Benzoyl-L-Arg-pNA in 50 mM Tris-HCl, pH 8.2, 20 mM CaCl2 (See Somorin, et al., J. Biochem. 85, 157-162 (1979)).
as §9

[2] = biological target: T2, Human Neutrophil Cathepsin G (Homo sapiens, UniProt P08311); test: Ki determination, human neutrophil cathepsin G (N-Suc-Ala-Ala-Pro-Phe-pNA); conditions: 625 mM Tris-HCl, pH 7.5, 2.5 mM MgCl2, 0.125% Brij 35; read-out: Experimentally Determined Ki, Cathepsin G
T2 construct: from tissue; host or cells: human neutrophils
T2 sequence (P08311 21-255): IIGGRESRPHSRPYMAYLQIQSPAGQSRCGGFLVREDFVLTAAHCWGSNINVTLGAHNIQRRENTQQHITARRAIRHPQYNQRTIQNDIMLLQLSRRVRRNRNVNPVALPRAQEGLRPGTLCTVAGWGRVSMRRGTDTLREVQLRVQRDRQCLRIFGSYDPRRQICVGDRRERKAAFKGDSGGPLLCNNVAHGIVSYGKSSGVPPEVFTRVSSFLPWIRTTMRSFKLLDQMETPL
Method: as §1, §2, §3, §4, §5, §6, §7, §8
Human Neutrophil Cathepsin G activity was determined by using N-Suc-Ala-Ala-Pro-Phe-pNA in 625 mM Tris-HCl, pH 7.5, 2.5 mM MgCl2, 0.125% Brij 35 (See Groutas et al., Arch. Biochem. Biophys. 294, 144-146 (1992)).
as §9

Human plasma factor Xa = biological target: T3, Human plasma factor Xa (Homo sapiens, UniProt P00742); test: Ki determination, human plasma factor Xa (N-Benzoyl-Ile-Glu-Gly-Arg-pNA); conditions: 50 mM Tris-HCl, pH 7.8, 200 mM NaCl, 0.05% BSA; read-out: Experimentally Determined Ki, Factor Xa
T3 construct: from tissue; host or cells: human plasma
Method: as §1, §2, §3, §4, §5, §6, §7, §8
Human plasma factor Xa activity was determined by using N-Benzoyl-Ile-Glu-Gly-Arg-pNA in 50 mM Tris-HCl, pH 7.8, 200 mM NaCl, 0.05% BSA (See Lottenberg, et al. Meth. Enzymol. 80, 341-361 (1981)).
as §9

[3] = biological target: T4, Human Neutrophil elastase (Homo sapiens, UniProt P08246); test: Ki determination, human neutrophil elastase (pyroGlu-Pro-Val-pNA); conditions: 100 mM Tris-HCl, pH 8.3, 0.96 M NaCl, 1% BSA; read-out: Experimentally Determined Ki, Elastase
T4 construct: from tissue; host or cells: human neutrophils
T4 sequence (P08246 30-267): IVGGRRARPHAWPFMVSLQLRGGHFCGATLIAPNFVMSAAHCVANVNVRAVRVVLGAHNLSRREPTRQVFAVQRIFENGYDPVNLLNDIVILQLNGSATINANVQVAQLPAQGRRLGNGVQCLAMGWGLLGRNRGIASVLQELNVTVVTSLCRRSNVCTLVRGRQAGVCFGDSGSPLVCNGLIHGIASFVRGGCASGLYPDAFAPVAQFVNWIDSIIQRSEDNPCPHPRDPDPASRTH
Method: as §1, §2, §3, §4, §5, §6, §7, §8
Human Neutrophil elastase activity was determined by using pyroGlu-Pro-Val-pNA in 100 mM Tris-HCl, pH 8.3, 0.96 M NaCl, 1% BSA (See Kramps, et al. Scand. J. Clin. Lab. Invest. 43, 427-432 (1983)).
as §9

Human plasma plasmin = biological target: T5, Human plasma plasmin (Homo sapiens, UniProt P00747); test: Ki determination, human plasma plasmin (Tosyl-Gly-Pro-Lys-pNA); conditions: 100 mM Tris-HCl, pH 7.4, 100 mM NaCl, 0.05% Triton X-100; read-out: Experimentally Determined Ki, Plasmin
T5 construct: from tissue; host or cells: human plasma
Method: as §1, §2, §3, §4, §5, §6, §7, §8
Human plasma plasmin activity was determined by using Tosyl-Gly-Pro-Lys-pNAin 100 mM Tris-HCl, pH 7.4, 100 mM NaCl, 0.05% Triton X-100 (See Lottenberg, et al., Meth. Enzymol. 80, 341-361 (1981)).
as §9

Human plasma thrombin = biological target: T6, Human plasma thrombin (Homo sapiens, UniProt P00734); test: Ki determination, human plasma thrombin (H-D-Phe-Pip-Arg-pNA); conditions: 50 mM Tris-HCl, pH 8.3, 100 mM NaCl, 1% BSA; read-out: Experimentally Determined Ki, Thrombin
T6 construct: from tissue; host or cells: human plasma
Method: as §1, §2, §3, §4, §5, §6, §7, §8
Human plasma thrombin activity was determined by using H-D-Phe-Pip-Arg-pNA in 50 mM Tris-HCl, pH 8.3, 100 mM NaCl, 1% BSA (See Lottenberg, et al. Meth. Enzymol. 80, 341-361 (1981)).
as §9

r-tissue kallikrein = r-tissue kallikrein (Homo sapiens, UniProt P06870); test: Ki determination, r-tissue kallikrein (DL-Val-Leu-Arg-pNA); conditions: 50 mM Tris-HCl, pH 7.8, 200 mM NaCl, 0.05% BSA; read-out: Experimentally Determined Ki, Tissue Kallikrein
Method: as §1, §2, §3, §4, §5, §6, §7, §8
(§10) I. Human Plasma and r-Tissue Kallikrein
(§11) Human plasma and r-tissue kallikrein activity were determined in 50 mM Tris-HCl, pH 7.8, 200 mM NaCl, 0.05% BSA by using H-D-Prolyl-Phe-Arg-pNA and DL-Val-Leu-Arg-pNA, respectively (See Lottenberg, et al., Meth. Enzymol. 80, 341-361 (1981)).
as §9

Human plasma kallikrein = biological target: T7, Human plasma kallikrein (Homo sapiens, UniProt P03952); test: Ki determination, human plasma kallikrein (H-D-Prolyl-Phe-Arg-pNA); conditions: 50 mM Tris-HCl, pH 7.8, 200 mM NaCl, 0.05% BSA; read-out: Experimentally Determined Ki, Plasma Kallikrein
T7 construct: from tissue; host or cells: human plasma
Method: as §1, §2, §3, §4, §5, §6, §7, §8, §10, §11, §9

[4] = biological target: T8, Bovine Pancreatic Chymotrypsin (Bos taurus, UniProt P00766); test: Ki determination, bovine pancreatic chymotrypsin (N-Suc-Ala-Ala-Pro-Phe-pNA); conditions: 100 mM Tris-HCl, pH 7.8, 10 mM CaCl2; read-out: Experimentally Determined Ki, Chymotrypsin
T8 construct: from tissue; host or cells: bovine pancreas
Method: as §1, §2, §3, §4, §5, §6, §7, §8
Bovine Pancreatic Chymotrypsin activity was determined by using N-Suc-Ala-Ala-Pro-Phe-pNA in 100 mM Tris-HCl, pH 7.8, 10 mM CaCl2 (See Delmar, et al., J. Biochem. 85, 157-162 (1979)).
as §9

T3 sequence (P00742 235-488 limits assumed): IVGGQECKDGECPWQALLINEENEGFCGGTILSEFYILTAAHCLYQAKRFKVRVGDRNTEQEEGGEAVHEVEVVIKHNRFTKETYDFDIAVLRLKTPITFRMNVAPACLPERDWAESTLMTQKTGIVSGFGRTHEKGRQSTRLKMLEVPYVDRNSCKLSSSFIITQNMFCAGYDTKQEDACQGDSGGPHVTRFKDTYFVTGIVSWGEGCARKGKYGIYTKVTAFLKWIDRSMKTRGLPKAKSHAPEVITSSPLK
T3 sequence (P00742 41-179 partner limits assumed): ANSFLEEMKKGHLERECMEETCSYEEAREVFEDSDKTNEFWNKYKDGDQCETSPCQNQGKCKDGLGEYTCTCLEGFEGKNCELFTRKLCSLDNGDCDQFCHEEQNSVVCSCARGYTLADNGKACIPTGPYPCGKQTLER
T5 sequence (P00747 581-810 limits assumed): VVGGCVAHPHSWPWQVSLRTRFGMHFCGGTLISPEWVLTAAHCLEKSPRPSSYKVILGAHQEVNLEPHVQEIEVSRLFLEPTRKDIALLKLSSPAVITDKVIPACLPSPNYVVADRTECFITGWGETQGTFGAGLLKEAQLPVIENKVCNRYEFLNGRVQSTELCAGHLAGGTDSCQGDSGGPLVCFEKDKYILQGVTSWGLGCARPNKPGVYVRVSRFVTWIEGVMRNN
T5 sequence (P00747 97-580 partner limits assumed): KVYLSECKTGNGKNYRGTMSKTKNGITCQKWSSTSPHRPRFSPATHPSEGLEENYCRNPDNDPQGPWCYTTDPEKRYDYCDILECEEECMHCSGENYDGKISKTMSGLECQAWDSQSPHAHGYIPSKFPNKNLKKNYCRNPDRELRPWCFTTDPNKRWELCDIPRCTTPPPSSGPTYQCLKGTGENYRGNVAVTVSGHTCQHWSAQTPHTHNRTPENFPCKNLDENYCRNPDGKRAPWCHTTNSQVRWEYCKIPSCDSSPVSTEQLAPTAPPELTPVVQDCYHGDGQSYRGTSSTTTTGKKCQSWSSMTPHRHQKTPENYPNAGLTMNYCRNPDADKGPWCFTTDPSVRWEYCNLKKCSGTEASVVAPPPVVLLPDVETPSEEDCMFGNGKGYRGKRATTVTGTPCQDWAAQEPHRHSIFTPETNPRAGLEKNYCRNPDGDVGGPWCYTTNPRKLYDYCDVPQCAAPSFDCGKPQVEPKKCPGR
Chain of r-tissue kallikrein (P06870 25-262): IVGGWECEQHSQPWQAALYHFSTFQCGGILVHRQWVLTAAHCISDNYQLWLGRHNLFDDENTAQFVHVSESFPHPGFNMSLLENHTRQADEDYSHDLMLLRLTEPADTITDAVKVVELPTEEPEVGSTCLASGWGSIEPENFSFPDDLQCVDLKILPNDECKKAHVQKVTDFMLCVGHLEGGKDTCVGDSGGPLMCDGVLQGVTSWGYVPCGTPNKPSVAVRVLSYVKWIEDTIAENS
T7 sequence (P03952 391-638 limits assumed): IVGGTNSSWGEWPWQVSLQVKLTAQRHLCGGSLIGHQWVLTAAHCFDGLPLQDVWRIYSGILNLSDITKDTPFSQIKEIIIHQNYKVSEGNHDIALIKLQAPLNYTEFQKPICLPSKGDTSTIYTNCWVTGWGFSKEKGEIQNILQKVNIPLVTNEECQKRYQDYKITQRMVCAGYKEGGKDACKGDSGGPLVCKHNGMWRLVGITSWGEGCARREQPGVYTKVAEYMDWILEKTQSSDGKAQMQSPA
T7 sequence (P03952 20-390 partner limits assumed): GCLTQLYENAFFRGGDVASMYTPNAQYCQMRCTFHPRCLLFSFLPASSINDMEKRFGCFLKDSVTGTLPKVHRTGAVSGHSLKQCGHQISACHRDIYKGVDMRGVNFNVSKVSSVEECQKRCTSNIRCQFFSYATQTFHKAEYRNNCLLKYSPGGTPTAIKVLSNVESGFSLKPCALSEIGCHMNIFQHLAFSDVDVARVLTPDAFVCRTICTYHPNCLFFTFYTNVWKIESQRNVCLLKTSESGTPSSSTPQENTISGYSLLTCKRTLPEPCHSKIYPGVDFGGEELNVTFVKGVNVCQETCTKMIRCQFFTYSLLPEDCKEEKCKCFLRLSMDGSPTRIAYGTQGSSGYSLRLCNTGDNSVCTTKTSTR

Row | Structure (SMILES) | Ki (Human lung tryptase) [µM] | Ki [1] [µM] | Ki [2] [µM] | Ki (Human plasma factor Xa) [µM] | Ki [3] [µM] | Ki (Human plasma plasmin) [µM] | Ki (Human plasma thrombin) [µM] | Ki (r-tissue kallikrein) [µM] | Ki (Human plasma kallikrein) [µM] | Ki [4] [µM]
1 | N=C(N)c1ccc(S(=O)(=O)NCc2cccc(OCCCCCOc3cccc(CNS(=O)(=O)c4ccc(C(=N)N)cc4)c3)c2)cc1 [Example 74, 1,5-Bis-{3-[(4-carbamimidoyl-benzenesulfonylamino)-methyl]-phenoxy}-pentane] |  | 1.4 | > 100 | 40 | > 100 | 3.7 | > 100 | 16 | 9 | > 100
2 | N=C(N)c1ccc(S(=O)(=O)NCc2ccc(OCCCCCCCOc3ccc(CNS(=O)(=O)c4ccc(C(=N)N)cc4)cc3)cc2)cc1 [Example 46, 1,7-Bis-{4-[(4-carbamimidoyl-benzenesulfonylamino)-methyl]-phenoxy}-heptane] | 1.5 |  |  |  |  |  |  |  |  | 
3 | N=C(N)c1ccc2[nH]c(CC(=O)NCc3ccc(CNCCNCc4ccc(CNC(=O)Cc5nc6cc(C(=N)N)ccc6[nH]5)cc4)cc3)nc2c1 [Example 119] | 0.002 |  |  |  |  |  |  |  |  | 
4 | N=C(N)c1cccc(S(=O)(=O)NCc2cccc(OCCCCCOc3cccc(CNS(=O)(=O)c4cccc(C(=N)N)c4)c3)c2)c1 [Example 75, 1,5-Bis-{3[-(3-carbamimidoyl-benzenesulfonylamino)-methyl]-phenoxy}-pentane] |  | 3 | > 100 | 6 | > 100 | > 100 | > 100 | > 100 | 2.9 | > 100
5 | N=C(N)c1ccc(S(=O)(=O)NCc2ccc(OCCOc3ccc(CNS(=O)(=O)c4ccc(C(=N)N)cc4)cc3)cc2)cc1 [Example 52, 1,2-Bis-{4-[(4-carbamimidoyl-benzenesulfonylamino)-methyl]-phenoxy}-ethane] | 1.5 |  |  |  |  |  |  |  |  | 

Continued, values first:

Row | Ki (Human lung tryptase) [µM] | Ki [1] [µM] | Ki [2] [µM] | Ki (Human plasma factor Xa) [µM] | Ki [3] [µM] | Ki (Human plasma plasmin) [µM] | Ki (Human plasma thrombin) [µM] | Ki (r-tissue kallikrein) [µM] | Ki (Human plasma kallikrein) [µM] | Ki [4] [µM] | Structure (SMILES)
6 | 3.2 | 8 |  |  |  |  |  |  |  |  | N=C(N)c1ccc(S(=O)(=O)NCc2ccc(OCCCCCCOc3ccc(CNS(=O)(=O)c4ccc(C(=N)N)cc4)cc3)cc2)cc1 [Example 44, 1,6-Bis-{4-[(4-carbamimidoyl-benzenesulfonylamino)-methyl]-phenoxy}-hexane]
7 | 0.25 |  | > 100 | 47 | > 100 | > 100 | > 100 |  |  |  | N=C(N)c1ccc(S(=O)(=O)NCc2ccc(OCCCCCOc3ccc(CNS(=O)(=O)c4ccc(C(=N)N)cc4)cc3)cc2)cc1 [Example 42, 1,5-Bis-{4-[(4-carbamimidoyl-benzenesulfonylamino)-methyl]-phenoxy}-pentane]
8 | 12.5 | 4.2 |  |  |  |  |  |  |  |  | N=C(N)c1ccc(S(=O)(=O)NCc2ccc(OCCCCOc3ccc(CNS(=O)(=O)c4ccc(C(=N)N)cc4)cc3)cc2)cc1 [Example 48, 1,4-Bis-{4-[(4-carbamimidoyl-benzenesulfonylamino)-methyl]-phenoxy}-butane]
